Results reported in ChEMBL document CHEMBL5335843, “Application of tobramycin benzyl ether as an antibiotic adjuvant capable of sensitizing multidrug-resistant Gram-negative bacteria to rifampicin” (2024).

Experiments:
Type in all cases: functional
[1] = system: Acinetobacter baumannii; test: Antibacterial activity against multi-drug resistant Acinetobacter baumannii clinical isolate 110193 assessed as inhibition of bacterial growth incubated for 18 hrs by two fold broth microdilution assay
[2] = system: Acinetobacter baumannii; test: Antibacterial activity against multi-drug resistant Acinetobacter baumannii clinical isolate LAC-4 assessed as inhibition of bacterial growth incubated for 18 hrs by two fold broth microdilution assay
[3] = system: Pseudomonas aeruginosa; test: Antibiotic adjuvant activity against multi-drug resistant Pseudomonas aeruginosa clinical isolate PA259 assessed as rifampicin MIC incubated for 18 hrs in presence of Rifampicin by two fold broth microdilution checkerboard assay
[4] = system: Acinetobacter baumannii; test: Antibiotic adjuvant activity against multi-drug resistant Acinetobacter baumannii clinical isolate AB031 assessed as rifampicin MIC incubated for 18 hrs in presence of Rifampicin by two fold broth microdilution checkerboard assay
[5] = system: Pseudomonas aeruginosa; test: Antibiotic adjuvant activity against multi-drug resistant Pseudomonas aeruginosa clinical isolate PA259 assessed as inhibition of bacterial growth incubated for 18 hrs in presence of Rifampicin by two fold broth microdilution checkerboard assay
[6] = system: Pseudomonas aeruginosa; test: Antibiotic adjuvant activity against multi-drug resistant Pseudomonas aeruginosa clinical isolate PA262 assessed as inhibition of bacterial growth incubated for 18 hrs in presence of Rifampicin by two fold broth microdilution checkerboard assay
[7] = system: Escherichia coli; test: Antibiotic adjuvant activity against multi-drug resistant Escherichia coli clinical isolate 94474 assessed as inhibition of bacterial growth incubated for 18 hrs in presence of Rifampicin by two fold broth microdilution checkerboard assay
[8] = system: Acinetobacter baumannii; test: Antibiotic adjuvant activity against multi-drug resistant Acinetobacter baumannii clinical isolate AB031 assessed as inhibition of bacterial growth incubated for 18 hrs in presence of Rifampicin by two fold broth microdilution checkerboard assay
[9] = system: Acinetobacter baumannii; test: Antibiotic adjuvant activity against multi-drug resistant Acinetobacter baumannii clinical isolate 110193 assessed as inhibition of bacterial growth incubated for 18 hrs in presence of Rifampicin by two fold broth microdilution checkerboard assay
[10] = system: Pseudomonas aeruginosa; test: Antibiotic adjuvant activity against multi-drug resistant Pseudomonas aeruginosa clinical isolate PA264 assessed as fold potentiation incubated for 18 hrs in presence of Rifampicin by two fold broth microdilution checkerboard assay
[11] = system: Escherichia coli; test: Antibiotic adjuvant activity against multi-drug resistant Escherichia coli clinical isolate 94393 assessed as fold potentiation incubated for 18 hrs in presence of Rifampicin by two fold broth microdilution checkerboard assay
[12] = system: Acinetobacter baumannii; test: Antibiotic adjuvant activity against multi-drug resistant Acinetobacter baumannii clinical isolate LAC-4 assessed as fractional inhibitory concentration index incubated for 18 hrs in presence of Rifampicin by two fold broth microdilution checkerboard assay
[13] = system: Pseudomonas aeruginosa; test: Antibacterial activity against multi-drug resistant Pseudomonas aeruginosa clinical isolate PA114228 assessed as inhibition of bacterial growth incubated for 18 hrs by two fold broth microdilution assay
[14] = system: Pseudomonas aeruginosa; test: Antibiotic adjuvant activity against multi-drug resistant Pseudomonas aeruginosa clinical isolate PA114228 assessed as inhibition of bacterial growth incubated for 18 hrs in presence of minocycline by two fold broth microdilution checkerboard assay
[15] = system: Escherichia coli; test: Antibiotic adjuvant activity against multi-drug resistant Escherichia coli clinical isolate EC94474 assessed as fold potentiation incubated for 18 hrs in presence of minocycline by two fold broth microdilution checkerboard assay
[16] = system: Pseudomonas aeruginosa; test: Antibiotic adjuvant activity against multi-drug resistant Pseudomonas aeruginosa clinical isolate PA114228 assessed as inhibition of bacterial growth incubated for 18 hrs in presence of doxycycline by two fold broth microdilution checkerboard assay
[17] = system: Pseudomonas aeruginosa; test: Antibiotic adjuvant activity against multi-drug resistant Pseudomonas aeruginosa clinical isolate PA262 assessed as inhibition of bacterial growth incubated for 18 hrs in presence of doxycycline by two fold broth microdilution checkerboard assay
[18] = system: Escherichia coli; test: Antibiotic adjuvant activity against multi-drug resistant Escherichia coli clinical isolate EC94474 assessed as fractional inhibitory concentration index incubated for 18 hrs in presence of doxycycline by two fold broth microdilution checkerboard assay
[19] = system: Enterococcus faecium; test: Antibacterial activity against Enterococcus faecium 128149 assessed as inhibition of bacterial growth incubated for 18 hrs by two fold broth microdilution assay
[20] = system: Enterococcus faecium; test: Antibiotic adjuvant activity against Enterococcus faecium 114278 assessed as fold potentiation incubated for 18 hrs in presence of rifampicin by two fold broth microdilution checkerboard assay
[21] = system: Pseudomonas aeruginosa; test: Antibiotic adjuvant activity against Pseudomonas aeruginosa PAO1 assessed as fold potentiation incubated for 18 hrs in presence of Rifampicin by two fold broth microdilution checkerboard assay
[22] = system: Acinetobacter baumannii; test: Antibiotic adjuvant activity against Acinetobacter baumannii ATCC 17978 assessed as fold potentiation incubated for 18 hrs in presence of novobiocin by two fold broth microdilution checkerboard assay
[23] = system: Escherichia coli; test: Antibiotic adjuvant activity against Escherichia coli ATCC 25922 assessed as fold potentiation incubated for 18 hrs in presence of vancomycin by two fold broth microdilution checkerboard assay
[24] = system: Pseudomonas aeruginosa; test: Antibiotic adjuvant activity against Pseudomonas aeruginosa PAO1 assessed as fold potentiation incubated for 18 hrs in presence of doxycycline by two fold broth microdilution checkerboard assay
[25] = system: Escherichia coli; test: Antibiotic adjuvant activity against Escherichia coli ATCC 25922 assessed as fold potentiation incubated for 18 hrs in presence of rifampicin and CAMHB Mg2+ media by two fold broth microdilution checkerboard assay
[26] = system: Acinetobacter baumannii; test: Antibiotic adjuvant activity against Acinetobacter baumannii ATCC 17978 assessed as fold increase in MIC incubated for 18 hrs in presence of rifampicin and CAMHB Mg2+ media by two fold broth microdilution checkerboard assay
[27] = system: Pseudomonas aeruginosa; test: Antibiotic adjuvant activity against Pseudomonas aeruginosa PAO1 assessed as minocycline MIC incubated for 18 hrs in presence of minocycline by two fold broth microdilution checkerboard assay

Compound: Cl.NC[C@H]1O[C@H](O[C@H]2[C@H](OCc3ccccc3)[C@@H](O[C@H]3O[C@H](COCc4ccccc4)[C@@H](OCc4ccccc4)[C@H](N)[C@H]3OCc3ccccc3)[C@H](N)C[C@@H]2N)[C@H](N)C[C@@H]1OCc1ccccc1
- MIC [1]: 64 µg/mL
- MIC [2]: 16 µg/mL
- MIC [3]: 16 µg/mL
- MIC [4]: 0.002 µg/mL
- MIC [5]: 8 µg/mL
- MIC [6]: 8 µg/mL
- MIC [7]: 4 µg/mL
- MIC [8]: 8 µg/mL
- MIC [9]: 8 µg/mL
- fold change (FC) [10]: 1
- fold change (FC) [11]: 1
- fractional inhibitory concentration index (FICI) [12]: 0.251
- MIC [13]: 64 µg/mL
- MIC [14]: 8 µg/mL
- fold change (FC) [15]: 64
- MIC [16]: 8 µg/mL
- MIC [17]: 8 µg/mL
- fractional inhibitory concentration index (FICI) [18]: 0.188
- MIC [19]: 16 µg/mL
- fold change (FC) [20]: 1
- fold change (FC) [21]: 8
- fold change (FC) [22]: 2048
- fold change (FC) [23]: 4
- fold change (FC) [24]: 4
- fold change (FC) [25]: 2
- fold change (FC) [26]: >=2
- MIC [27]: 0.5 µg/mL
